Measurements published in patent US20250109504A1, “HETEROCYCLIC NON-TRIAZOLE COMPOUNDS AND METHODS FOR INHIBITING CORROSION IN INDUSTRIAL WATER TREATMENT” (CHEMTREAT, INC., priority 2023, published 2025).

How the values were obtained:
[1] = LPR corrosion test of copper coupons in synthetic water with free chlorine (Gamry corrosion cell); settings: for deterioration in corrosion resistance when free chlorine is added: FAC 1 ppm after 1 hr
Description: Several classes of compounds at various concentrations were tested to determine their potential to inhibit corrosion of copper alloy in aqueous systems as shown in Table 1 below.
1 liter samples of synthetic water were each dosed with 5 ppm of a different glucamide compound (A, B, C, D) according to Formula (I) above and 50 ppm of a standard scale inhibitor. Another 1 liter sample of synthetic water was dosed with 4 ppm of tolyltriazole and 50 ppm of the standard scale inhibitor product.
The apparatus used for the corrosion testing was a Gamry Multiport Corrosion Cell and Gamry Reference 600+ potentiostat with multiplexor. Copper coupons (CDA110) were added to the sample cells, and the cells were heated to 50° C. and maintained at this temperature throughout the testing. The cells were continuously stirred at a speed of 350 rpm. A cylindrical working electrode was submerged into the test solutions, and an LPR sweep (linear polarization resistance) was performed every hour for 18 hours. After the one hour mark, 1 ppm of free chlorine was dosed into the corrosion cell.

[2] = Solubility in sodium hydroxide (NaOH); type: physicochemical; settings: solubilized in sodium hydroxide (NaOH)
From the text: Moreover, conventional treatment methods involve solubilizing corrosion inhibitors in sodium hydroxide (NaOH). Solubility of benzimidazoles and polymeric acids such as 4,5-imidazoledicarboxylic acid in NaOH is low, i.e., less than 2%. […] These and other issues are addressed by the present disclosure.

Row | Compound | corrosion inhibition properties (corrosion rates, FIG. 1) as compared to the triazole inhibitors ([1]; Example 1, IMDCC 5, 2.5, 1 ppm vs HST 0.5/0.25/0.1 ppm and TTA 0.5 ppm, CDA110, 50° C., entire 18 hour period) | deterioration in corrosion resistance when free chlorine is added ([1]; Example 1, IMDCC 5, 2.5, 1 ppm, CDA110, 50° C.) | corrosion inhibition properties (corrosion rates, FIG. 2) as compared to the triazole inhibitors ([1]; Example 2, IMDCC 1 ppm, CT1 + IMDCC 100 ppm + 1 ppm vs HST 0.5 ppm, CDA110, 50° C., entire 18 hour period) | deterioration in corrosion resistance when free chlorine is added ([1]; Example 2, IMDCC 1 ppm, CT1 + IMDCC 100 ppm + 1 ppm, unlike the CT1 inhibitor) | corrosion inhibition properties (corrosion rates, FIG. 3) as compared to the triazole inhibitors ([1]; Example 3, IMDCC 2.0, 1 ppm, HST + IMDCC 0.10+0.90 to 0.90+0.10 ppm vs HST 1/0.5/0.25 ppm, CDA110, 50° C., entire 18 hour period) | deterioration in corrosion resistance when free chlorine is added ([1]; Example 3, IMDCC 2.0, 1 ppm, HST + IMDCC 0.10+0.90 to 0.90+0.10 ppm) | corrosion inhibition properties (corrosion rates, FIG. 4) as compared to the triazole inhibitors ([1]; Example 4, IMDCC 2.0, 1 ppm, CT2 + IMDCC 50 ppm + 1 ppm, 25 ppm + 2 ppm, CDA110, 50° C., entire 18 hour period) | deterioration in corrosion resistance when free chlorine is added ([1]; Example 4, IMDCC 2.0, 1 ppm, CT2 + IMDCC 50 ppm + 1 ppm, 25 ppm + 2 ppm, unlike the CT2 inhibitor) | Solubility in NaOH [2]
1 | Imidazole dicarboxylate [IMDCC] | superior corrosion inhibition properties | do not exhibit any substantial deterioration | superior corrosion inhibition properties | do not exhibit any substantial deterioration | superior corrosion inhibition properties | do not exhibit any substantial deterioration | superior corrosion inhibition properties | do not exhibit any substantial deterioration | –
2 | O=C(O)c1nc[nH]c1C(=O)O [4,5-imidazoledicarboxylic acid] | – | – | – | – | – | – | – | – | less than 2%
